What was measured:
Format in all cases: biochemical
p300 [1] = molecular target: T1, p300 (Homo sapiens, UniProt Q09472); assay: MALDI-TOF analysis of p300-catalyzed acylation of histone H3 peptide in vitro; settings: 20 μM analog, MS analysis
T1 construct: made in house; host or cells: SF9 insect cells, baculovirus
Protocol: Cells were lysed in lysis buffer (20 mM Tris, pH 7.5, 500 mM NaCl, 4 mM MgCl2, 0.4 mM EDTA, 20% glycerol, 2 mM DTT, and supplemented with protease inhibitors). Clarified cell lysates were diluted to 300 mM NaCl, and NP-40 was added to 0.1% final concentration. Flag M2 agarose resin (Sigma) was added to the lysate and incubated for 4 hours at 4° C. […] Protein concentration and purity were estimated by comparison to BSA standards on SDS gels stained with Gelcode Blue stain (Pierce).

p300 [2] = molecular target: T1, p300; assay: In vitro acylation of histone H3 protein by p300 and mapping of modification sites (spectral counts, nano-HPLC/MS/MS)
Protocol: Following the in vitro reaction, proteins were separated on 15% SDS-PAGE and stained with coomassie brilliant blue R-250 staining solution (Bio-Rad). The gel slices containing histone H3 products were excised from each lane, washed with 50 mM ammonium bicarbonate (ABC) twice, destained with 50 mM ABC/CH3CN (50/50) twice and dehydrated with CH3CN. After drying the gel slices in a SpeedVac, gel slices were rehydrated with trypsin solution (2 μg of trypsin for each vial/gel slice) and incubated in 37° C. water bath for 18 hrs. Trypsin-digested peptides in solution were collected, dried in SpeedVac, resuspended in H2O (with 0.1% TFA) and submitted samples to nano-HPLC/MS/MS analysis (Thermo LTQ-Orbitrap in the Proteomic Resource Center at Rockefeller University).
LC-MS analysis was performed with a Dionex 3000 nano-HPLC coupled to an LTQ-Orbitrap ion trap mass spectrometer (ThermoFisher). Peptides were pressure loaded onto a home made 75 μm diameter, 15 cm C18 reverse phase column and separated with a gradient running from 95% buffer A (HPLC water with 0.1% formic acid) and 5% buffer B (HPLC grade acetonitrile with 0.1% formic acid) to 55% B over 30 min, next ramping to 95% B over 10 min and holding 95% B for 10 min. One full MS scan (300-2000 MW) was followed by 3 data dependent scans of the nth most intense ions with dynamic exclusion enabled. The spray voltage was set to 1.94 kV and the flow rate through the column was set to 0.25 μL/min.
Raw tandem mass spectra were searched against the human IPI protein database version 3.56 using SEQUEST search engine (Thermo Scientific). Cysteine carbamido-methylation was searched as fixed modification, while methionine/tryptophan oxidation, asparagines/glutamine deamindation, lysine/serine/threonine/cysteine acetylation, N-terminal acetylation/3-butynylation/4-pentynylation/5-hexynylation and lysine 3-butynylation/4-pentynylation/5-hexynylation were searched as variable modifications. Peptide tolerance was set as 10.0 ppm, fragment ion tolerance was set as 1.0 AMU and trypsin was set as the digestion enzyme. The resulting searching files were then analyzed and visualized by Scaffold 2 proteome software.
Each identified protein must contain at least 2 unique peptides that are exclusively assigned to this protein with a minimum protein identification probability of 99%. Each peptide spectrum must meet several selection thresholds including >95% for peptide identification probability, >1.0 for SEQUEST XCorr score, and ±6 ppm for actual minus calculated peptide mass.

p300 [3] = molecular target: T1, p300; assay: In-gel fluorescent detection of p300-catalyzed in vitro acylation of histone H3; settings: CuAAC with az-Rho, in-gel fluorescence
Excerpt: CuAAC reactions were allowed to proceed at room temperature for 1 hr, and proteins were subsequently separated on 15% SDS-PAGE. The gels were soaked in destaining solution (40% MeOH, 10% AcOH, 50% H2O) for 1-2 hrs to remove the non-covalently bound az-Rho dye. After washing with dd H2O, the gel was subjected to in-gel fluorescence scanning.

[4] = lysine-modified peptide, H3 + acyl-CoA + p300
[5] = lysine-modified peptide, H3 + acyl-CoA, without p300

T1 sequence (Q09472 whole entry): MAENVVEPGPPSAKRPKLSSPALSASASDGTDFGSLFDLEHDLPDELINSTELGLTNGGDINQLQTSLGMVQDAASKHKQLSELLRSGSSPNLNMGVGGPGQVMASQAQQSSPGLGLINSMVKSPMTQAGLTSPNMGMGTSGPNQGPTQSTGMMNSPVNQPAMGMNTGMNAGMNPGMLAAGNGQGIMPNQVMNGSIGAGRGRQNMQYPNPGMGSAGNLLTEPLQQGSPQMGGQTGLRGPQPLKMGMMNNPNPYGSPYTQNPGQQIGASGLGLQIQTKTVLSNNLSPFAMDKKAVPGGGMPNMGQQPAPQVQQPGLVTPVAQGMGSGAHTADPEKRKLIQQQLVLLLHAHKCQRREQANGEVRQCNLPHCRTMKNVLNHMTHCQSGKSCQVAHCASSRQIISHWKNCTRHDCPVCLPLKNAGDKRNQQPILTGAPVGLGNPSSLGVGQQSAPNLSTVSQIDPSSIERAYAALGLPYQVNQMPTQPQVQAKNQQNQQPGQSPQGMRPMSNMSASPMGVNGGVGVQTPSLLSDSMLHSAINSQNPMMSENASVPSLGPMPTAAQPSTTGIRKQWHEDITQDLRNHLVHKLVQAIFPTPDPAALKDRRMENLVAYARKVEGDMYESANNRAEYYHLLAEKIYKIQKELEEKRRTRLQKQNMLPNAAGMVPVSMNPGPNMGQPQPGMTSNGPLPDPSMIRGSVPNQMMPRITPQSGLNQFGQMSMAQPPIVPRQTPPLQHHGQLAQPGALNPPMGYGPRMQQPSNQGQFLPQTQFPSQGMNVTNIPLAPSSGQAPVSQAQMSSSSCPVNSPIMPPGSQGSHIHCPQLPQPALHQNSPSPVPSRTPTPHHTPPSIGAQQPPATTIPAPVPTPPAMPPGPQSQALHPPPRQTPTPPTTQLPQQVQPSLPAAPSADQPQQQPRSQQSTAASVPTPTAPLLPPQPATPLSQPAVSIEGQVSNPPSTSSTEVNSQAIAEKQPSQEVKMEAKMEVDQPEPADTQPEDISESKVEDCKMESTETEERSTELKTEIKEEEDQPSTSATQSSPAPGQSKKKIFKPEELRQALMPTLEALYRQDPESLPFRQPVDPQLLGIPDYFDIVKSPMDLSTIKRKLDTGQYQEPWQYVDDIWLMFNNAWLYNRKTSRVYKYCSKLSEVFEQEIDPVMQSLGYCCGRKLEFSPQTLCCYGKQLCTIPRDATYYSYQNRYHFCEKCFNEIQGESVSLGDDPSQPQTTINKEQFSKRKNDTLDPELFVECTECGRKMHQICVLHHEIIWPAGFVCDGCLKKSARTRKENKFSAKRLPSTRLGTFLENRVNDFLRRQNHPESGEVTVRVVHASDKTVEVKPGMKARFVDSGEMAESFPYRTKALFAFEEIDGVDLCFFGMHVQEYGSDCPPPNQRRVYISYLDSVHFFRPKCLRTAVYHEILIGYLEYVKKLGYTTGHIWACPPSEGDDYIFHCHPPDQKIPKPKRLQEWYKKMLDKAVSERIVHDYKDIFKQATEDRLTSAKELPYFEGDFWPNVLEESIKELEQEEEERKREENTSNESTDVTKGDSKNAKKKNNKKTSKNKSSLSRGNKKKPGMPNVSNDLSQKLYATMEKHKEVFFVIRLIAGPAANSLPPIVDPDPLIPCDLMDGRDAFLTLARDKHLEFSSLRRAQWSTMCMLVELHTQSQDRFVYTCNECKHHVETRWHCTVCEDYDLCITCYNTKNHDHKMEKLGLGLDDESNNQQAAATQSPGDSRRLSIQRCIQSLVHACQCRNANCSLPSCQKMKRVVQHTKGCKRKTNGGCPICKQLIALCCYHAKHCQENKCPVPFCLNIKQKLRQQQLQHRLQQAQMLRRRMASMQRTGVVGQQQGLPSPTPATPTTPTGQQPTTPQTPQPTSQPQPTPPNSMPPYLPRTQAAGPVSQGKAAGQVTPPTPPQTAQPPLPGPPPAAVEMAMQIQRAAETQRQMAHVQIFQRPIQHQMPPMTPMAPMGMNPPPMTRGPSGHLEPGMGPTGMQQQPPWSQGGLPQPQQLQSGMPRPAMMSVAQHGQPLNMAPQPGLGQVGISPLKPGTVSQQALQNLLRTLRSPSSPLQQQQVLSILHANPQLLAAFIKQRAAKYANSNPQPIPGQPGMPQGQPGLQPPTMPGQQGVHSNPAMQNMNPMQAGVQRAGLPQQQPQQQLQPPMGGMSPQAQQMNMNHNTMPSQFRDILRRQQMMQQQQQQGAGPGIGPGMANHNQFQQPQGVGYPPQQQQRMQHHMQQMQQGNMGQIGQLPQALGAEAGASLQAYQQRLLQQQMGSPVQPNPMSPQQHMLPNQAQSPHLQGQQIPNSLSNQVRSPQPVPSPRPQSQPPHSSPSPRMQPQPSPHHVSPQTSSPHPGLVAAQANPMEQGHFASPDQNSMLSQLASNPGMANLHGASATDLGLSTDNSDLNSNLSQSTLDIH

5-hexynyl-CoA [Analog 3]
utilization as acyl-CoA donor for p300-catalyzed acylation of histone H3 peptide (p300 [1]): less efficient acyl-donor substrate | Spectral Counts of Peptide EIAQDFK (73-79) (SEQ ID NO: 7) (p300 [2]; H3 + acyl-CoA + p300): 89 | Spectral Counts of Peptide KLPFQR (64-69) (SEQ ID NO: 6) (p300 [2]; H3 + acyl-CoA + p300): 8 | Spectral Counts of Peptide KQLATK (18-23) (SEQ ID NO: 1) (p300 [2]; H3 + acyl-CoA + p300): 10 | Spectral Counts of Peptide KSAPATGGVK (27-36) (SEQ ID NO: 2) (p300 [2]; H3 + acyl-CoA + p300): 38 | Spectral Counts of Peptide SAPATGGVK (28-36) SEQ ID NO: 3 (p300 [2]; H3 + acyl-CoA + p300): 17 | Spectral Counts of Peptide STELLIR (57-63) (SEQ ID NO: 5) (p300 [2]; H3 + acyl-CoA + p300): 16 | Spectral Counts of Peptide VTIMPK (117-122) (SEQ ID NO: 9) (p300 [2]; H3 + acyl-CoA + p300): 8 | Spectral Counts of Peptide YRPGTVALR (41-49) (SEQ ID NO: 4) (p300 [2]; H3 + acyl-CoA + p300): 57 | Spectral Counts of Peptide EIAQDFK (73-79) (SEQ ID NO: 7) (p300 [2]; H3 + acyl-CoA, without p300): 74 | Spectral Counts of Peptide KQLATK (18-23) (SEQ ID NO: 1) (p300 [2]; H3 + acyl-CoA, without p300): 4 | Spectral Counts of Peptide KSAPATGGVK (27-36) (SEQ ID NO: 2) (p300 [2]; H3 + acyl-CoA, without p300): 36 | Spectral Counts of Peptide RVTIMPK (116-122) (SEQ ID NO: 8) (p300 [2]; H3 + acyl-CoA, without p300): 1 | Spectral Counts of Peptide SAPATGGVK (28-36) SEQ ID NO: 3 (p300 [2]; H3 + acyl-CoA, without p300): 12 | Spectral Counts of Peptide STELLIR (57-63) (SEQ ID NO: 5) (p300 [2]; H3 + acyl-CoA, without p300): 7 | Spectral Counts of Peptide VTIMPK (117-122) (SEQ ID NO: 9) (p300 [2]; H3 + acyl-CoA, without p300): 3 | Spectral Counts of Peptide YRPGTVALR (41-49) (SEQ ID NO: 4) (p300 [2]; H3 + acyl-CoA, without p300): 47 | Spectral Counts of Peptide KQLATK (18-23, K18) (SEQ ID NO: 13) (p300 [2]; [4]): 19 | Spectral Counts of Peptide KQLATKAAR (18-26, K18, K23) (SEQ ID NO: 15) (p300 [2]; [4]): 18 | Spectral Counts of Peptide KSAPATGGVK (27-36, K27) (SEQ ID NO: 17) (p300 [2]; [4]): 12 | Spectral Counts of Peptide KSTGGKAPR (9-17, K9, K14) (SEQ ID NO: 11) (p300 [2]; [4]): 2 | Spectral Counts of Peptide KSTGGKAPR (9-17, K14) (SEQ ID NO: 10) (p300 [2]; [4]): 11 | Spectral Counts of Peptide QLATKAAR (19-26, K23) (SEQ ID NO: 16) (p300 [2]; [4]): 1 | Spectral Counts of Peptide KQLATK (18-23, K18) (SEQ ID NO: 13) (p300 [2]; [5]): 2 | Spectral Counts of Peptide KSAPATGGVK (27-36, K27) (SEQ ID NO: 17) (p300 [2]; [5]): 2 | Spectral Counts of Peptide KSTGGKAPR (9-17, K14) (SEQ ID NO: 10) (p300 [2]; [5]): 2 | visualization of p300-acylation of histone H3 (p300 [3]): serve as sensitive reagents for visualizing p300-acylation of histone H3

Source: patent US20100203647A1, “Chemical Reporters of Protein Acylation” (THE ROCKEFELLER UNIVERSITY, priority 2008, published 2010)
